In brackets after ≈: the same amount, converted by molar mass.
Columns and labels:
[1] = Inhibition of PKC
[2] = Inhibition of thymocyte protein tyrosine kinase
[3] = Inhibition of FGFR
[4] = Inhibition of PI3K
[5] = target: Epidermal growth factor receptor (Homo sapiens, UniProt P00533); experiment: Inhibition of EGFR
[6] = target: Proto-oncogene tyrosine-protein kinase Src (Homo sapiens, UniProt P12931); experiment: Inhibition of c-Src
[7] = target: Cyclin-dependent kinase 6 (Homo sapiens, UniProt Q00534); experiment: Inhibition of CDK6
Sequence of Cyclin-dependent kinase 6 (Q00534 whole entry): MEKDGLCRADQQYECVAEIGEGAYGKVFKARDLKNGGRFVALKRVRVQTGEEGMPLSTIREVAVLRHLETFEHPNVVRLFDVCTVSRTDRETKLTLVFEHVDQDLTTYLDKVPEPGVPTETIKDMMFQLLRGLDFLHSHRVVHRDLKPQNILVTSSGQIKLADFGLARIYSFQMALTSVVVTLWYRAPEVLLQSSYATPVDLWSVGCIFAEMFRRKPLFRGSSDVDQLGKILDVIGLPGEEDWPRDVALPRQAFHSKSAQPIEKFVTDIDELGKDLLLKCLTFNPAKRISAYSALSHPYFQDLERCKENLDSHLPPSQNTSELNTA

[8] = Inhibition of CK2
[9] = target: Myosin light chain kinase, smooth muscle (Homo sapiens, UniProt Q15746); experiment: Inhibition of MLCK
Sequence of Myosin light chain kinase, smooth muscle (Q15746 whole entry): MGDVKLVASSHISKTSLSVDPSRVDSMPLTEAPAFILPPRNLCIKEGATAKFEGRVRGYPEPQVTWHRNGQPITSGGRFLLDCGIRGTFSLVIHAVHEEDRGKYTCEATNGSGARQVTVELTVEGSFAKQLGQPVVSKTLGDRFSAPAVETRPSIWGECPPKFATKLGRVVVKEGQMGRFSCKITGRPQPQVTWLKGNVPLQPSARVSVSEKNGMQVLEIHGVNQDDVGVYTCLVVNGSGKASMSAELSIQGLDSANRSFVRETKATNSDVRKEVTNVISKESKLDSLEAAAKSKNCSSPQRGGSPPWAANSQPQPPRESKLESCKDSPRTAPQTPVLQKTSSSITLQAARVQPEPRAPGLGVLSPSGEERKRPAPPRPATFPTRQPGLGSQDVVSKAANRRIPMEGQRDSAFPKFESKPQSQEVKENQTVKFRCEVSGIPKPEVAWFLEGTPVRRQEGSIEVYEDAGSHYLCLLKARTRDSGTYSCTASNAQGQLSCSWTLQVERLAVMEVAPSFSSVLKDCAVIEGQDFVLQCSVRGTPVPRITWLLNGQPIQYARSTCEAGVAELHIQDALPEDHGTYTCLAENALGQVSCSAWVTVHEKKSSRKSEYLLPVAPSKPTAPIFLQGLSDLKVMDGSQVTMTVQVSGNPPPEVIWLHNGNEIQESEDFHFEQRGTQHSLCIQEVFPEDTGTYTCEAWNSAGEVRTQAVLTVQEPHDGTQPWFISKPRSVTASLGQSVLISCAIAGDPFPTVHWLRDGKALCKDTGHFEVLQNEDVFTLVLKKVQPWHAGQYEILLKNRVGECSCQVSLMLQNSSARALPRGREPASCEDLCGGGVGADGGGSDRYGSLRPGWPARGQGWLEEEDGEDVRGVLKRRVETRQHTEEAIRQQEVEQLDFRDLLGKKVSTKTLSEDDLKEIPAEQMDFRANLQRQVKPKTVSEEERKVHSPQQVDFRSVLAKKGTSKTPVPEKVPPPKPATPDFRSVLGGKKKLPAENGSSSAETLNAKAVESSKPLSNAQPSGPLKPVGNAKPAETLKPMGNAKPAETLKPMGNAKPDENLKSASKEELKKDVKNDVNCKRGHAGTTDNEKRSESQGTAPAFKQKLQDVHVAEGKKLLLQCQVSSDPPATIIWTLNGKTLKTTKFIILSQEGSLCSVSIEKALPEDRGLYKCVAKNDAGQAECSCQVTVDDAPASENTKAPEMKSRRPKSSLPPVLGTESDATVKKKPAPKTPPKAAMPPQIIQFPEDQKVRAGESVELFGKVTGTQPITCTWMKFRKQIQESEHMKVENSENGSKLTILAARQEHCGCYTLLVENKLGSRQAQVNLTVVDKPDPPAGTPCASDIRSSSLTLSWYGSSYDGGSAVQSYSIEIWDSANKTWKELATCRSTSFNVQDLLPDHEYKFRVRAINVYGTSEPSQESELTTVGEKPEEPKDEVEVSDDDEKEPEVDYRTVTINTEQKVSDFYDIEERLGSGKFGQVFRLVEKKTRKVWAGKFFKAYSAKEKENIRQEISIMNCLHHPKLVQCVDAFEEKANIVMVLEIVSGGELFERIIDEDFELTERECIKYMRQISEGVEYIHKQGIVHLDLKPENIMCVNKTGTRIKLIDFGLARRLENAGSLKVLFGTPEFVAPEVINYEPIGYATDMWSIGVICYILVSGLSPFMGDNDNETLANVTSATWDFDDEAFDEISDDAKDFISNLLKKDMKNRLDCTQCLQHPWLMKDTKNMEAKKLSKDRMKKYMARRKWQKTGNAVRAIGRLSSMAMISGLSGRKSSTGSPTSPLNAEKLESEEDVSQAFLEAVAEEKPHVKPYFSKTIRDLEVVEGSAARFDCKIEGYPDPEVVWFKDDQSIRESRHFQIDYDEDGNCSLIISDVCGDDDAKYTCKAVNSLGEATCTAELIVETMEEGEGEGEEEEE

[10] = Inhibition of CK1
[11] = Inhibition of PKA
[12] = Inhibition of CaM kinase
[13] = Inhibition of Rous sarcoma virus SRC
[14] = Inhibition of PKD

Sequence of Epidermal growth factor receptor (P00533 whole entry): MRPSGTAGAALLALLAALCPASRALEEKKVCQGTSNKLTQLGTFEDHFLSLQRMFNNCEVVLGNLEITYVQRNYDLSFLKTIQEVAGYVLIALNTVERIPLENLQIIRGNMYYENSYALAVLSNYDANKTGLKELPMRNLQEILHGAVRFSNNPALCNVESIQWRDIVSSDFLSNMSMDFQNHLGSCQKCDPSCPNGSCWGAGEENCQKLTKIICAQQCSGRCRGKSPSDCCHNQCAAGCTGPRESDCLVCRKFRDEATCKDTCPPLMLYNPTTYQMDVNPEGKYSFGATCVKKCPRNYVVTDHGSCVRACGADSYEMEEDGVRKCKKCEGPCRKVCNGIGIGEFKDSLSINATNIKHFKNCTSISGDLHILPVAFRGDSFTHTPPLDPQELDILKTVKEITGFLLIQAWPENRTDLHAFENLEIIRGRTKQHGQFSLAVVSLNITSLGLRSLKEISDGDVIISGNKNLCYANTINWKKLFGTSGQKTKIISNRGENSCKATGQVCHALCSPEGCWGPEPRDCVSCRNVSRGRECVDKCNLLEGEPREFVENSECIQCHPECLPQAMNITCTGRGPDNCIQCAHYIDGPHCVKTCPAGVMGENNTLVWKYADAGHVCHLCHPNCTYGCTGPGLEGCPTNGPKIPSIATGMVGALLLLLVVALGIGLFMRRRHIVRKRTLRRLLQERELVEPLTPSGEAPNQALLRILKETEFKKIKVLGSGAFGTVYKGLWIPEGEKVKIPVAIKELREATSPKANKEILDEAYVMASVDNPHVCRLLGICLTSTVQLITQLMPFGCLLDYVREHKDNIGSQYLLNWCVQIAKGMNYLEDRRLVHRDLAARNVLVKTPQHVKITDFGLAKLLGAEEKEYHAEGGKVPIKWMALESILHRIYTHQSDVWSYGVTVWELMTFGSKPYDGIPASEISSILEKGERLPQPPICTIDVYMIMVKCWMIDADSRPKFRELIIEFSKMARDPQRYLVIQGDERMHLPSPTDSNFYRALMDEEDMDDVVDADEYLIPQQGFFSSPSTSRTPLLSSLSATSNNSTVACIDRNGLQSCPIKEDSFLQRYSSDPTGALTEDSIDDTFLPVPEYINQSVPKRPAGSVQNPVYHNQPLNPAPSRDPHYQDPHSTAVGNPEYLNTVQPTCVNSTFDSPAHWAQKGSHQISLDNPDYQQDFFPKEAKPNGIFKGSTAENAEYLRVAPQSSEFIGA
Sequence of Proto-oncogene tyrosine-protein kinase Src (P12931 2-536 limits assumed): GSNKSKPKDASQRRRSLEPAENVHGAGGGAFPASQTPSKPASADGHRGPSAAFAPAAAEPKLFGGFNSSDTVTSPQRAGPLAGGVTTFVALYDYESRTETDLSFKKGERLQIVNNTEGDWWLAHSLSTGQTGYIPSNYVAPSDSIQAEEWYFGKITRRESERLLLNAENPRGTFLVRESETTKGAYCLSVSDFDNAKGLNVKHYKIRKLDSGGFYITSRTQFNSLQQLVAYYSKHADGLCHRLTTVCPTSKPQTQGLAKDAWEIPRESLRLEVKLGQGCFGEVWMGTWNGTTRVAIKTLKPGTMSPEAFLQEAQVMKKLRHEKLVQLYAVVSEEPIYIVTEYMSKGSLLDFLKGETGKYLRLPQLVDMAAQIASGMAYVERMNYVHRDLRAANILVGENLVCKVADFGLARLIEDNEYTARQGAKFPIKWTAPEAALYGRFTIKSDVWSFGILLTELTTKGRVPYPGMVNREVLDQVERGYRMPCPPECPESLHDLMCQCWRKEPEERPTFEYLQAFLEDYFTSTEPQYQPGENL

`O=c1cc(-c2ccc(O)cc2)oc2cc(O)cc(O)c12` [APIGENIN] gave an IC50 [1] of 10 µM, an ID50 [2] of 90 µg/mL (≈ 333 µM) and an IC50 [3] of 20 µM. It also gave an IC50 [4] of 12 µM.
`O=C(/C=C/c1ccc(O)c(O)c1)c1ccc(O)cc1O` [BUTEIN] gave an IC50 [5] of 8 µM and an IC50 [6] of 65 µM.
`O=C1c2ccccc2-[n+]2ccc3c([nH]c4ccccc43)c21` [FASCAPLYSIN CHLORIDE] gave an IC50 [7] of 3.4 µM.
Compound `O=c1c(O)c(-c2ccc(O)c(O)c2)oc2cc(O)ccc12` [FISETIN] has an IC50 [2] of 35 µM, an IC50 [8] of 0.35 µM and an IC50 [4] of 10 µM.
Compound `O=c1cc(-c2ccc(O)c(O)c2)oc2cc(O)cc(O)c12` [LUTEOLIN] has an IC50 [4] of 8 µM.
For `O=c1c(O)c(-c2cc(O)c(O)c(O)c2)oc2cc(O)cc(O)c12` [MYRICETIN], the Ki [1] was 12.1 µM, the IC50 [8] was 0.92 µM and the Ki [8] was 0.6 µM. For the same compound, the IC50 [4] was 1.8 µM, the Kd [4] was 0.17 µM and the Ki [9] was 1.7 µM. The Ki [10] was 9 µM and the Ki [11] was 27.5 µM.
In the case of `Oc1cc(O)cc(/C=C/c2ccc(O)c(O)c2)c1` [PICEATANNOL], the IC50 [1] is reported as 8 µM, the Ki [2] is reported as 15 µM and the IC50 [9] is reported as 12 µM. For the same compound, the IC50 [11] was 3 µM and the IC50 [12] was 19 µM.
In the case of `O=c1c(O)c(-c2ccc(O)c(O)c2)oc2cc(O)cc(O)c12` [QUERCETIN], the ID50 [2] is reported as 11 µg/mL (≈ 36.4 µM), the IC50 [4] is reported as 3.8 µM and the Kd [4] is reported as 0.28 µM. The Ki [13] was 6 µM.
For `Oc1ccc(/C=C/c2cc(O)cc(O)c2)cc1` [RESVERATROL], the IC50 [1] was 90 µM, the Ki [1] was 55 µM and the IC50 [8] was 10 µM. The Ki [8] was 1.2 µM and the IC50 [14] was 200 µM.
In the case of `COc1c(O)cc2occ(-c3ccc(O)cc3)c(=O)c2c1O` [TECTORIGENIN], the IC50 [5] is reported as 3.3 µM.
